# Assays:
# GFAP = GFAP immunofluorescence of lumbar spinal cord dorsal horn (astrocyte activation); format: in vivo, mice; conditions: two rounds of cisplatin, then 3 doses of 10 mg/kg
# Excerpt: For quantification of astrocyte and microglia activation, lumbar spinal cords were collected on day 22. This collection day was after completion of cisplatin treatment and 3 injections of compound 001. […] Spinal cords were processed and stained with antibodies specific for GFAP and Iba-1. Images were captured under blinded conditions from the lumbar dorsal horn using a Leica SPE confocal microscope (Leica Microsystems, Buffalo Grove, Ill.).
# For assessing astrocyte activation, paraformaldehyde fixed frozen 6 μm sections of lumbar spinal cord (L1-L6) were incubated with an antibody against glial fibrillary acidic protein (GFAP) (Rabbit; Abcam, Cambridge, Mass.) followed by Alexa-594-goat anti-rabbit IgG (Life Technologies, Carlsbad, Calif.) as described (Zhang H, et al. Evidence that spinal astrocytes but not microglia contribute to the pathogenesis of Paclitaxel-induced painful neuropathy. J. Pain, 2012; 13(3):293-303). Images were captured using a Leica SPE confocal microscope (Leica Microsystems, Buffalo Grove, Ill.). GFAP staining intensity was quantified using Image J software for percent positive GFAP staining in which intensity thresholds were maintained between samples. All immunofluorescence analysis were done by an experimenter blinded to the treatment groups.
# [1] = tested on: cisplatin-induced numbness; assay: Adhesive removal test (ART) for numbness; format: in vivo, mice; conditions: treatment starting after two rounds of cisplatin; tested in week 5
# Method: To quantify signs of cisplatin-induced pain, the von Frey test was used (see below) which measures the decrease in threshold to induce a withdrawal response to a mechanical stimulus (hyperalgesia, one of the characteristics of CIPN). To assess cisplatin-induced numbness, the adhesive removal test (ART) was used. The time it took for the mouse to have a behavioral response to the patch (i.e. shaking or attempted removal) was recorded as a measure of sensory deficit or numbness. To determine if behavioral changes were due to altered general activity or motor function, the locomotor activity (LMA) test and the rotarod test was used. For LMA mice were placed in an open-field testing cage and movement was measured for 5 minutes. For the rotarod, mice were trained for two days and then tested on the rotarod (with increasing speeds) for 5 minutes. Time on the rotarod was recorded. […] The time it took for the mouse to display a behavioral response to the patch (i.e. shaking or attempted removal) was recorded. […]
# [2] = tested on: cisplatin-induced mechanical hyperalgesia; assay: Von Frey test for mechanical hyperalgesia in cisplatin-treated mice; format: in vivo; conditions: for effect on existing cisplatin-induced mechanical hyperalgesia: 7 daily doses starting 3 days after last cisplatin dose
# Method: Adult male C57/Bl6J mice received cisplatin intraperitoneally (i.p.) (2.3 mg/kg) daily for five days, followed by five days rest and a second round of five days of cisplatin treatment. Three days after the last dose of cisplatin, mice received the HDAC6 inhibitor, compound 001, a compound of Formula (I), i.p. for seven to fourteen days at 3 mg/kg or 10 mg/kg.
# To quantify signs of cisplatin-induced pain, the von Frey test was used (see below) which measures the decrease in threshold to induce a withdrawal response to a mechanical stimulus (hyperalgesia, one of the characteristics of CIPN). To assess cisplatin-induced numbness, the adhesive removal test (ART) was used. The time it took for the mouse to have a behavioral response to the patch (i.e. shaking or attempted removal) was recorded as a measure of sensory deficit or numbness. To determine if behavioral changes were due to altered general activity or motor function, the locomotor activity (LMA) test and the rotarod test was used. For LMA mice were placed in an open-field testing cage and movement was measured for 5 minutes. For the rotarod, mice were trained for two days and then tested on the rotarod (with increasing speeds) for 5 minutes. Time on the rotarod was recorded.
# Allodynic response to tactile stimulation is assessed using the Von Frey apparatus (Touch Test®).
# The animal is placed in an enclosure and positioned on a metal mesh surface, but allowed to move freely. The animals' cabins are covered with red cellophane to diminish environmental disturbances. The test begins after a cessation of exploratory behavior. The set of Von Frey monofilaments provide an approximate logarithmic scale of actual force and a linear scale of perceived intensity.
# The operating principle: when the tip of a fiber of given length and diameter is pressed against the skin at right angles, the force of application increases as long as the researcher continues to advance the probe until the fiber bends. After the fiber bends, the probe continues to advance, causing the fiber to bend more, but without additional force being applied.
# The Touch Test™ Sensory Evaluator can be used on the plantar surfaces of the rat's foot. The animal indicates sensation by pulling back its paw. The minimal force needed to elevate the withdrawal reflex is considered/designated as the value of reference. In order to achieve paw withdrawal, the pressure applied is sometimes greater than 60 g, often requiring the researcher to apply enough pressure with the Von Frey filament to actually lift the paw of the naive animal. Decreases in force needed to induce withdrawal are indicative of hyperalgesia, as the force applied is a non-painful stimulus under normal conditions.
# Cisplatin (TEVA Pharmaceuticals, North Wales, Pa.) was diluted in sterile saline and administered intraperitoneally (i.p.) at a dose of 2.3 mg/kg daily for 5 days, followed by 5 days of rest, and a second round of 5 doses for a total cumulative dose of 23 mg/kg cisplatin. It was shown that this dosing schedule induces mechanical hyperalgesia in mice (Qi-Liang Mao-Ying A K, et al. The anti-diabetic drug metformin protects against chemotherapy-induced peripheral neuropathy in a mouse model. Clinical Cancer Research. 2014; Krukowski K, et al. Prevention of chemotherapy-induced peripheral neuropathy by the small-molecule inhibitor pifithrin-mu. Pain. 2015; 156(11):2184-92). HDAC6 inhibitor, compound 001, (Acetylon Pharmaceuticals, Boston, Mass.) was dissolved in 20% 2-hydroxypropyl-β-cyclodextrin+0.5% hydroxypropyl methylcellulose (Sigma-Aldrich, St. Louis, Mo.) in water and administered i.p. at a dose of 10 mg/kg or 3 mg/kg. […]
smiles,measurement,setting,value
O=C(NO)c1cnc(NC2(c3ccccc3)CCC(F)(F)CC2)nc1 [compound 001],GFAP expression in dorsal horn of spinal cord,GFAP,normalized GFAP expression to levels of saline-treated animals
same,time to behavioral response to adhesive patch (numbness),[1],normalized the response time in this test
same,effect on existing cisplatin-induced mechanical hyperalgesia,[2]; 3 mg/kg i.p.,did not
same,effect of prolonged treatment on mechanical hyperalgesia,[2]; 10 mg/kg for two consecutive weeks starting 3 days after last cisplatin dose,complete and sustained recovery from mechanical hyperalgesia
same,duration of beneficial effect of prolonged regimen,"[2]; 10 mg/kg for two consecutive weeks, followed to experiment termination",maintained until at least one month after the last dose
same,effect on existing cisplatin-induced mechanical hyperalgesia,[2]; 10 mg/kg i.p.,effectively relieved cisplatin-induced mechanical hyperalgesia
same,time after first dose at which effect on mechanical allodynia was first detected,"[2]; 10 mg/kg i.p., cisplatin-treated mice",24 h
same,"mechanical sensitivity, compound alone","[2]; 10 mg/kg, without cisplatin",did not alter mechanical sensitivity
same,time after last dose until which beneficial effect on mechanical hyperalgesia was maintained,[2]; 7 daily doses of 10 mg/kg,4 days
same,prevention of development of mechanical hyperalgesia,[2]; administered i.p. one hour prior to each dose of cisplatin,prevented the development of mechanical hyperalgesia
same,effect of second round of treatment on mechanical hyperalgesia,"[2]; second round of 7 daily injections, 10 mg/kg, after 7 days rest",transiently reversed cisplatin-induced mechanical hyperalgesia

# Reference: patent publication US11013740B2, “Histone deacetylase 6 selective inhibitors for the treatment of cisplatin-induced peripheral neuropathy” (REGENACY PHARMACEUTICALS, LLC, priority 2015, dated 2021)
